Reference: patent publication US10344025B2, “GLS1 inhibitors for treating disease” (Board of Regents, The University of Texas System, priority 2014, dated 2019)

Tests used:
[1] = target: purified recombinant human GAC (GLS1) (Homo sapiens (Human), UniProt O94925); assay: GLS1 Enzymatic Activity Assay (dual-coupled enzymatic assay, resorufin/Amplex UltraRed readout); format: biochemical;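 note: glutamate from GAC coupled via glutamate oxidase and peroxidase to resorufin, read as fluorescence (ex 530, em 590 nm) kinetically or at 20 min, four-parameter logistic IC50 fit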
purified recombinant human GAC (GLS1), sequence (O94925 other isoform, or with tags, fused parts or gaps): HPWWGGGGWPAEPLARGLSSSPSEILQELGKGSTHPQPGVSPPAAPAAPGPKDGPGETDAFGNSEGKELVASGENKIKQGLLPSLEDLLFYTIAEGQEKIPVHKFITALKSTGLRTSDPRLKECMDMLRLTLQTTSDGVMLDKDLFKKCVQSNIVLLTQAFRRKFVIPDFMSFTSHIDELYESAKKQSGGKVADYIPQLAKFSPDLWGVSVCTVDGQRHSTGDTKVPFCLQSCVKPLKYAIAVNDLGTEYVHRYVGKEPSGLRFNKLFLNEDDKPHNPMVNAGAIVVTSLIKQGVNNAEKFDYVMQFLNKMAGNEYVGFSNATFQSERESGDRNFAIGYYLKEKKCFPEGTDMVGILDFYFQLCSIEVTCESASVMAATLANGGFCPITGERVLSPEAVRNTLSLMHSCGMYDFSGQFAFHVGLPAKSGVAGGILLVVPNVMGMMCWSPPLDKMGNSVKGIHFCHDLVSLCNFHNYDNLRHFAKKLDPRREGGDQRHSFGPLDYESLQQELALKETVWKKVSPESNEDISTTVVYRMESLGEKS

A549 cells = assay: Proliferation Assay (A549 viability, Cell Titer Fluor, 72 hours); format: cell-based; settings: Homo sapiens
Procedure, shortened: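 A549 cells seeded at 1000 cells/well, rested 24 h, then exposed to compound in 0.5% DMSO for 72 h at 37 °C. Viability read by Cell Titer Fluor fluorescence; IC50 from four-parameter logistic fit.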

SMILES: C[C@H](NC(=O)c1cn(CCC(F)Cn2cc(C(=O)NCc3cc(C(F)(F)F)ccn3)nn2)nn1)c1ccccc1 (stereo partly drawn) [Example 458, 1-[2-fluoro-4-(4-{[(1S)-1-phenylethyl]carbamoyl}-1H-1,2,3-triazol-1-yl)butyl]-N-{[4-(trifluoromethyl)pyridin-2-yl]methyl}-1H-1,2,3-triazole-4-carboxamide]
- IC50 [1]: 100 to 500 nM
- EC50 (A549 cells; A549, 72 h): 100 to 500 nM

SMILES: CC(C)CC(=O)NCc1cn(CCCCn2cc(C(=O)NCc3cccc(OC(F)(F)F)c3)nn2)nn1 [Example 55, l-(4-{4-[(3-methylbutanamido)methyl]-1H-1,2,3-triazol-1-yl}butyl)-N-{[3-(trifluoromethoxy)phenyl]methyl}-1H-1,2,3-triazole-4-carboxamide]
- IC50 [1]: 100 to 500 nM
- EC50 (A549 cells; A549, 72 h): 500 to 5000 nM

SMILES: O=C(CN1CCC(F)(F)CC1)Nc1cn(CCCCn2cc(C(=O)NCc3cc(Cl)ccc3F)nn2)nn1 [Example 359, N-[(5-chloro-2-fluorophenyl)methyl]-1-(4-{4-[2-(4,4-difluoropiperidin-1-yl)acetamido]-1H-1,2,3-triazol-1-yl}butyl)-1H-1,2,3-triazole-4-carboxamide]
- IC50 [1]: 100 to 500 nM
- EC50 (A549 cells; A549, 72 h): 100 to 500 nM

SMILES: O=C(Cc1ccccn1)Nc1cn(CC(F)CCn2cc(C(=O)NCc3cc(C(F)(F)F)ccn3)nn2)nn1 (centres unmarked) [Example 399, 1-(3-fluoro-4-{4-[2-(pyridin-2-yl)acetamido]-1H-1,2,3-triazol-1-yl}butyl)-N-{[4-(trifluoromethyl)pyridin-2-yl]methyl}-1H-1,2,3-triazole-4-carboxamide]
- IC50 [1]: < 100 nM
- EC50 (A549 cells; A549, 72 h): 100 to 500 nM

SMILES: O=C(CC1CCCCC1)Nc1cn(CCCCn2cc(C(=O)NCc3ccccn3)nn2)nn1 [Example 280, 1-{4-[4-(2-cyclohexylacetamido)-1H-1,2,3-triazol-1-yl]butyl}-N-(pyridin-2-ylmethyl)-1H-1,2,3-triazole-4-carboxamide]
- IC50 [1]: 100 to 500 nM
- EC50 (A549 cells; A549, 72 h): 500 to 5000 nM

SMILES: Cc1ccc(CNC(=O)c2cn(CCC(F)Cn3cc(NC(=O)Cc4cc(OC(F)(F)F)ccc4F)nn3)nn2)cn1 (centres unmarked) [Example 376, 1-[3-fluoro-4-(4-{2-[2-fluoro-5-(trifluoromethoxy)phenyl]acetamido}-1H-1,2,3-triazol-1-yl)butyl]-N-[(6-methylpyridin-3-yl)methyl]-1H-1,2,3-triazole-4-carboxamide]
- IC50 [1]: < 100 nM
- EC50 (A549 cells; A549, 72 h): < 100 nM

SMILES: O=C(NCc1cc(C(F)(F)F)ccn1)c1cn(CC(F)CCc2nnc(C(=O)NCc3ccc(C(F)(F)F)cn3)s2)nn1 (centres unmarked) [Example 489, 5-{3-fluoro-4-[4-({[4-(trifluoromethyl)pyridin-2-yl]methyl}carbamoyl)-1H-1,2,3-triazol-1-yl]butyl}-N-{[5-(trifluoromethyl)pyridin-2-yl]methyl}-1,3,4-thiadiazole-2-carboxamide]
- IC50 [1]: < 100 nM
- EC50 (A549 cells; A549, 72 h): < 100 nM

SMILES: Cn1cnc(CC(=O)Nc2nnc(CCC(F)Cn3cc(C(=O)NCc4cc(OC(F)(F)F)ccc4F)nn3)s2)c1 (centres unmarked) [Example 576, 1-(2-fluoro-4-(5-(2-(1-methyl-1H-imidazol-4-yl)acetamido)-1,3,4-thiadiazol-2-yl)butyl)-N-(2-fluoro-5-(trifluoromethoxy)benzyl)-1H-1,2,3-triazole-4-carboxamide]
- IC50 [1]: < 100 nM
- EC50 (A549 cells; A549, 72 h): < 100 nM

SMILES: O=C(NCc1ccc(C(F)(F)F)cn1)c1cn(CCC(F)Cn2cc(C(=O)NCc3cc(OC(F)(F)F)ccc3F)nn2)nn1 (centres unmarked) [Example 441, 1-{2-fluoro-4-[4-({[5-(trifluoromethyl)pyridin-2-yl]methyl}carbamoyl)-1H-1,2,3-triazol-1-yl]butyl}-N-{[2-fluoro-5-(trifluoromethoxy)phenyl]methyl}-1H-1,2,3-triazole-4-carboxamide]
- IC50 [1]: < 100 nM
- EC50 (A549 cells; A549, 72 h): < 100 nM

SMILES: O=C(NCc1cc(C(F)(F)F)ccn1)c1cn(CC(F)CCc2nnc(C(=O)NCc3cc(C(F)(F)F)ccn3)s2)nn1 (centres unmarked) [Example 520, 5-{3-fluoro-4-[4-({[4-(trifluoromethyl)pyridin-2-yl]methyl}carbamoyl)-1H-1,2,3-triazol-1-yl]butyl}-N-{[4-(trifluoromethyl)pyridin-2-yl]methyl}-1,3,4-thiadiazole-2-carboxamide]
- IC50 [1]: < 100 nM
- EC50 (A549 cells; A549, 72 h): < 100 nM

SMILES: CNC(=O)c1nnc(CCC(F)Cn2cc(C(=O)NCc3cncc(C(F)(F)F)c3)nn2)s1 (centres unmarked) [Example 507, 5-{3-fluoro-4-[4-({[5-(trifluoromethyl)pyridin-3-yl]methyl}carbamoyl)-1H-1,2,3-triazol-1-yl]butyl}-N-methyl-1,3,4-thiadiazole-2-carboxamide]
- IC50 [1]: 100 to 500 nM
- EC50 (A549 cells; A549, 72 h): 100 to 500 nM

SMILES: O=C(Cc1ccccn1)Nc1nnc(CCC(F)Cn2cc(C(=O)NCc3cc(OC(F)(F)F)ccc3F)nn2)s1 (centres unmarked) [Example 514, 1-(2-fluoro-4-{5-[2-(pyridin-2-yl)acetamido]-1,3,4-thiadiazol-2-yl}butyl)-N-{[2-fluoro-5-(trifluoromethoxy)phenyl]methyl}-1H-1,2,3-triazole-4-carboxamide]
- IC50 [1]: < 100 nM
- EC50 (A549 cells; A549, 72 h): < 100 nM

SMILES: O=C(CN1CC(F)(F)C1)Nc1cn(CC(F)CCn2cc(C(=O)NCc3cc(OC(F)(F)F)ccc3F)nn2)nn1 (centres unmarked) [Example 390, 1-(4-{4-[2-(3,3-difluoroazetidin-1-yl)acetamido]-1H-1,2,3-triazol-1-yl}-3-fluorobutyl)-N-{[2-fluoro-5-(trifluoromethoxy)phenyl]methyl}-1H-1,2,3-triazole-4-carboxamide]
- IC50 [1]: < 100 nM
- EC50 (A549 cells; A549, 72 h): < 100 nM

SMILES: O=C(Cc1cncs1)Nc1nnc(CCC(F)Cn2cc(C(=O)NCc3cc(OC(F)(F)F)ccc3F)nn2)s1 (centres unmarked) [Example 593, 1-(2-fluoro-4-(5-(2-(thiazol-5-yl)acetamido)-1,3,4-thiadiazol-2-yl)butyl)-N-(2-fluoro-5-(trifluoromethoxy)benzyl)-1H-1,2,3-triazole-4-carboxamide]
- IC50 [1]: < 100 nM
- EC50 (A549 cells; A549, 72 h): < 100 nM

SMILES: CNC(=O)c1cn(CCC(F)Cn2cc(C(=O)NCc3cccc(OC(F)(F)F)c3)nn2)nn1 (centres unmarked) [Example 162, 1-{3-fluoro-4-[4-({[3-(trifluoromethoxy)phenyl]methyl}carbamoyl)-1H-1,2,3-triazol-1-yl]butyl}-N-methyl-1H-1,2,3-triazole-4-carboxamide]
- IC50 [1]: 100 to 500 nM
- EC50 (A549 cells; A549, 72 h): 100 to 500 nM

SMILES: CNC(=O)c1cn(CCCCc2ccc(NC(=O)Cc3cncc(-c4cccc(OC(F)(F)F)c4)c3)nn2)nn1 [Example 188, N-methyl-1-(4-(6-(2-(5-(3-(trifluoromethoxy)phenyl)pyridin-3-yl)acetamido)pyridazin-3-yl)butyl)-1H-1,2,3-triazole-4-carboxamide]
- IC50 [1]: < 100 nM
- EC50 (A549 cells; A549, 72 h): < 100 nM

SMILES: O=C(Cc1ccccn1)Nc1cn(CCCCn2cc(C(=O)NCc3cccc(OC(F)(F)F)c3)nn2)nn1 [Example 293, 1-(4-{4-[2-(pyridin-2-yl)acetamido]-1H-1,2,3-triazol-1-yl}butyl)-N-{[3-(trifluoromethoxy)phenyl]methyl}-1H-1,2,3-triazole-4-carboxamide]
- IC50 [1]: < 100 nM
- EC50 (A549 cells; A549, 72 h): 100 to 500 nM

SMILES: O=C(NCCc1ccccc1)c1nnc(CCCCc2ccc(NC(=O)[C@@H](O)c3ccccc3)nn2)s1 [Example 25, 5-(4-{6-[(2S)-2-hydroxy-2-phenylacetamido]pyridazin-3-yl}butyl)-N-(2-phenylethyl)-1,3,4-thiadiazole-2-carboxamide]
- IC50 [1]: < 100 nM
- EC50 (A549 cells; A549, 72 h): 100 to 500 nM

SMILES: O=C(NCc1cccc(Cl)c1)c1cn(CCCCn2cc(C(=O)NCc3cc(C(F)(F)F)ccn3)nn2)nn1 [Example 111, 1-[4-(4-{[(3-chlorophenyl)methyl]carbamoyl}-1H-1,2,3-triazol-1-yl)butyl]-N-{[4-(trifluoromethyl)pyridin-2-yl]methyl}-1H-1,2,3-triazole-4-carboxamide]
- IC50 [1]: < 100 nM
- EC50 (A549 cells; A549, 72 h): < 100 nM

SMILES: Cc1ccc(CNC(=O)c2cn(CCCCn3cc(C(=O)NCc4cccc(OC(F)(F)F)c4)nn3)nn2)cn1 [Example 72, 1-[4-(4-{[(6-methylpyridin-3-yl)methyl]carbamoyl}-1H-1,2,3-triazol-1-yl)butyl]-N-{[3-(trifluoromethoxy)phenyl]methyl}-1H-1,2,3-triazole-4-carboxamide]
- IC50 [1]: < 100 nM
- EC50 (A549 cells; A549, 72 h): < 100 nM

SMILES: O=C(NCCC(F)(F)F)c1cn(CC(F)CCc2nnc(C(=O)NCc3cncc(C(F)(F)F)c3)s2)nn1 (centres unmarked) [Example 502, 5-(3-fluoro-4-{4-[(3,3,3-trifluoropropyl)carbamoyl]-1H-1,2,3-triazol-1-yl}butyl)-N-{[5-(trifluoromethyl)pyridin-3-yl]methyl}-1,3,4-thiadiazole-2-carboxamide]
- IC50 [1]: 100 to 500 nM
- EC50 (A549 cells; A549, 72 h): 100 to 500 nM

SMILES: O=C(CN1CC(F)C1)Nc1cn(CC(F)CCn2cc(C(=O)NCc3cc(OC(F)(F)F)ccc3F)nn2)nn1 (centres unmarked) [Example 372, 1-(3-fluoro-4-(4-(2-(3-fluoroazetidin-1-yl)acetamido)-1H-1,2,3-triazol-1-yl)butyl)-N-(2-fluoro-5-(trifluoromethoxy)benzyl)-1H-1,2,3-triazole-4-carboxamide]
- IC50 [1]: < 100 nM
- EC50 (A549 cells): 100 to 500 nM

SMILES: O=C(NCc1cccc(OC(F)(F)F)c1)c1cn(CCCCn2cc(C(=O)NCc3cc(C(F)(F)F)ccn3)nn2)nn1 [Example 83, N-{[3-(trifluoromethoxy)phenyl]methyl}-1-{4-[4-({[4-(trifluoromethyl)pyridin-2-yl]methyl}carbamoyl)-1H-1,2,3-triazol-1-yl]butyl}-1H-1,2,3-triazole-4-carboxamide]
- IC50 [1]: < 100 nM
- EC50 (A549 cells; A549, 72 h): < 100 nM

SMILES: O=C(NCc1cc(OC(F)(F)F)ccc1F)c1cn(CCC(F)Cn2cc(C(=O)NCc3ccc(C(F)(F)F)nc3)nn2)nn1 (centres unmarked) [Example 424, 1-{2-fluoro-4-[4-({[2-fluoro-5-(trifluoromethoxy)phenyl]methyl}carbamoyl)-1H-1,2,3-triazol-1-yl]butyl}-N-{[6-(trifluoromethyl)pyridin-3-yl]methyl}-1H-1,2,3-triazole-4-carboxamide]
- IC50 [1]: < 100 nM
- EC50 (A549 cells; A549, 72 h): < 100 nM

SMILES: O=C(NCc1cc(C(F)(F)F)ccn1)c1cn(CCC(F)Cn2cc(C(=O)NCc3cncc(C(F)(F)F)c3)nn2)nn1 (centres unmarked) [Example 145, 1-{3-fluoro-4-[4-({[5-(trifluoromethyl)pyridin-3-yl]methyl}carbamoyl)-1H-1,2,3-triazol-1-yl]butyl}-N-1{[4-(trifluoromethyl)pyridin-2-yl]methyl}-1H-1,2,3-triazole-4-carboxamide]
- IC50 [1]: < 100 nM
- EC50 (A549 cells; A549, 72 h): < 100 nM
